From patent publication US11357779B2 (G1 Therapeutics, Inc., priority 2018, dated 2022)
Where two headings read alike, the source gives them in different places.

Experiment: Plasma concentration versus time of Compound I and metabolite Compound III in patients dosed QD or BID with Form B of Compound II plus fulvestrant
Format: in vivo, human
Details: human, plasma, oral
Text: Patients were enrolled into 1 of 2 parallel, independently operating, dose-escalation dosing cohorts with Form B of Compound II administered continuously either once daily (QD) or twice daily (BID) with food with fixed-dose fulvestrant (intramuscularly every 14 days for the first three injections and then every 28 days). Pre- or perimenopausal patients also received goserelin for the duration of study treatment. A […] agonist was started at least 28 days before the first dose of Form B, and those patients who were taking another LHRH agonist were switched to goserelin on Day 1. Patients were split into […] cohorts providing once a day (QD) dosing of 200 mg, 300 mg, 400 mg, 500 mg, or 650 mg of Form B, or twice a day (BID) dosing of 100 mg, 150 mg, or 200 mg of Form B. The second dose in BID cohorts was not administered in the evening until at least 12 hours after the initial morning dose of Form B. The dosing cohorts for Form B of Compound II are provided in Table 1.
Blood samples were collected at the following time points relative to the morning dose of Form B at Day 1 and at Day 29: pre-dose (0 hour) and 1, 2, 3, 4, 6, 8, 10, 12 (prior to the evening dose in the BID cohorts), and 24 (prior to the next day's morning dose) hours after dosing. A 5-minute time window was allowed for samples collected between the predose and 3 hours after Form B dosing. A 15-minute window was allowed for samples collected between 4 to 12 hours after Form B dosing. A 1-hour window was allowed for the sample collected 24 hours after Form B dosing. Blood samples for Compound I PK trough levels were collected pre-dose at Day 8, Day 15, and Day 22 prior to the morning administration of Compound I. Plasma concentrations of Compound I and its metabolite, Compound III, were measured using validated methods.
Analysis of plasma concentration versus time data for calculation of standard pharmacokinetic (PK) parameters following oral administration was conducted using Phoenix WinNonlin version 6.3 using actual blood sampling times.

CC(C)N1CCN(c2ccc(Nc3ncc4cc5n(c4n3)C3(CCCCC3)CNC5=O)nc2)CC1 [Compound I, 2′-((5-(4-isopropylpiperazin-1-yl)pyridin-2-yl)amino)-7′,8′-dihydro-6′H-spiro[cyclohexane-1,9′-pyrazino[1′,2′:1,5]pyrrolo[2,3-d]pyrimidin]-6′-one]
concentration at 3 h (200 mg, 200 mg QD of Form B, Day 29, 3.0 h, Median, read-out: Compound I Concentration): 11.8 ng/mL
concentration at 4 h (200 mg, 200 mg QD of Form B, Day 29, 4.0 h, Mean, read-out: Compound I Concentration): 17.5 ng/mL
concentration at 4 h (200 mg, 200 mg QD of Form B, Day 29, 4.0 h, Median, read-out: Compound I Concentration): 18.8 ng/mL
concentration at 6 h (200 mg, 200 mg QD of Form B, Day 29, 6.0 h, Mean, read-out: Compound I Concentration): 18.5 ng/mL
concentration at 6 h (200 mg, 200 mg QD of Form B, Day 29, 6.0 h, Median, read-out: Compound I Concentration): 17.9 ng/mL
concentration at 8 h (200 mg, 200 mg QD of Form B, Day 29, 8.0 h, Mean, read-out: Compound I Concentration): 14.6 ng/mL
concentration at 8 h (200 mg, 200 mg QD of Form B, Day 29, 8.0 h, Median, read-out: Compound I Concentration): 12.1 ng/mL
concentration at 10 h (200 mg, 200 mg QD of Form B, Day 29, 10.0 h, Mean, read-out: Compound I Concentration): 11.1 ng/mL
concentration at 10 h (200 mg, 200 mg QD of Form B, Day 29, 10.0 h, Median, read-out: Compound I Concentration): 8.7 ng/mL
concentration at 12 h (200 mg, 200 mg QD of Form B, Day 29, 12.0 h, Mean, read-out: Compound I Concentration): 8.46 ng/mL
concentration at 12 h (200 mg, 200 mg QD of Form B, Day 29, 12.0 h, Median, read-out: Compound I Concentration): 8.32 ng/mL
concentration at 24 h (200 mg, 200 mg QD of Form B, Day 29, […], Mean, read-out: Compound I Concentration): 6.01 ng/mL
concentration at 24 h (200 mg, 200 mg QD of Form B, Day 29, […], Median, read-out: Compound I Concentration): 4.9 ng/mL
concentration at 0 h (200 mg, Cohort 8, 200 mg BID of Form B, Day 29, 0.0 h, read-out: Compound I Concentration, Mean): 9.74 ng/mL
concentration at 0 h (200 mg, Cohort 8, 200 mg BID of Form B, Day 29, 0.0 h, read-out: Compound I Concentration, Min): 5.47 ng/mL
concentration at 1 h (200 mg, Cohort 8, 200 mg BID of Form B, Day 29, 1.0 h, read-out: Compound I Concentration, Mean): 9.23 ng/mL
concentration at 1 h (200 mg, Cohort 8, 200 mg BID of Form B, Day 29, 1.0 h, read-out: Compound I Concentration, Min): 5.1 ng/mL
concentration at 2 h (200 mg, Cohort 8, 200 mg BID of Form B, Day 29, 2.0 h, read-out: Compound I Concentration, Mean): 12 ng/mL
concentration at 2 h (200 mg, Cohort 8, 200 mg BID of Form B, Day 29, 2.0 h, read-out: Compound I Concentration, Min): 5.56 ng/mL
concentration at 3 h (200 mg, Cohort 8, 200 mg BID of Form B, Day 29, 3.0 h, read-out: Compound I Concentration, Mean): 15.2 ng/mL
concentration at 3 h (200 mg, Cohort 8, 200 mg BID of Form B, Day 29, 3.0 h, read-out: Compound I Concentration, Min): 7.49 ng/mL
concentration at 4 h (200 mg, Cohort 8, 200 mg BID of Form B, Day 29, 4.0 h, read-out: Compound I Concentration, Mean): 21.1 ng/mL
concentration at 4 h (200 mg, Cohort 8, 200 mg BID of Form B, Day 29, 4.0 h, read-out: Compound I Concentration, Min): 7.69 ng/mL
concentration at 6 h (200 mg, Cohort 8, 200 mg BID of Form B, Day 29, 6.0 h, read-out: Compound I Concentration, Max): 28.1 ng/mL
concentration at 6 h (200 mg, Cohort 8, 200 mg BID of Form B, Day 29, 6.0 h, read-out: Compound I Concentration, Mean): 19 ng/mL
concentration at 6 h (200 mg, Cohort 8, 200 mg BID of Form B, Day 29, 6.0 h, read-out: Compound I Concentration, Min): 7.6 ng/mL
concentration at 8 h (200 mg, Cohort 8, 200 mg BID of Form B, Day 29, 8.0 h, read-out: Compound I Concentration, Max): 21.7 ng/mL
concentration at 8 h (200 mg, Cohort 8, 200 mg BID of Form B, Day 29, 8.0 h, read-out: Compound I Concentration, Mean): 14.6 ng/mL
concentration at 8 h (200 mg, Cohort 8, 200 mg BID of Form B, Day 29, 8.0 h, read-out: Compound I Concentration, Min): 7.36 ng/mL
concentration at 10 h (200 mg, Cohort 8, 200 mg BID of Form B, Day 29, 10.0 h, read-out: Compound I Concentration, Max): 38.6 ng/mL
concentration at 10 h (200 mg, Cohort 8, 200 mg BID of Form B, Day 29, 10.0 h, read-out: Compound I Concentration, Mean): 18.6 ng/mL
concentration at 10 h (200 mg, Cohort 8, 200 mg BID of Form B, Day 29, 10.0 h, read-out: Compound I Concentration, Min): 5.61 ng/mL
concentration at 12 h (200 mg, Cohort 8, 200 mg BID of Form B, Day 29, 12.0 h, read-out: Compound I Concentration, Max): 40.8 ng/mL
concentration at 12 h (200 mg, Cohort 8, 200 mg BID of Form B, Day 29, 12.0 h, read-out: Compound I Concentration, Mean): 19.8 ng/mL
concentration at 12 h (200 mg, Cohort 8, 200 mg BID of Form B, Day 29, 12.0 h, read-out: Compound I Concentration, Min): 6.32 ng/mL
concentration at 0 h (300 mg, 300 mg QD of Form B, Day 1, 0.0 h, Mean, read-out: Compound I Concentration): 0 ng/mL
concentration at 0 h (300 mg, 300 mg QD of Form B, Day 1, 0.0 h, Median, read-out: Compound I Concentration): 0 ng/mL
concentration at 1 h (300 mg, 300 mg QD of Form B, Day 1, 1.0 h, Mean, read-out: Compound I Concentration): 22.9 ng/mL
concentration at 1 h (300 mg, 300 mg QD of Form B, Day 1, 1.0 h, Median, read-out: Compound I Concentration): 3.73 ng/mL
concentration at 2 h (300 mg, 300 mg QD of Form B, Day 1, 2.0 h, Mean, read-out: Compound I Concentration): 16.9 ng/mL
concentration at 2 h (300 mg, 300 mg QD of Form B, Day 1, 2.0 h, Median, read-out: Compound I Concentration): 5.96 ng/mL
concentration at 3 h (300 mg, 300 mg QD of Form B, Day 1, 3.0 h, Mean, read-out: Compound I Concentration): 27.1 ng/mL
concentration at 3 h (300 mg, 300 mg QD of Form B, Day 1, 3.0 h, Median, read-out: Compound I Concentration): 13.4 ng/mL
concentration at 4 h (300 mg, 300 mg QD of Form B, Day 1, 4.0 h, Mean, read-out: Compound I Concentration): 32 ng/mL
concentration at 4 h (300 mg, 300 mg QD of Form B, Day 1, 4.0 h, Median, read-out: Compound I Concentration): 19.8 ng/mL
concentration at 6 h (300 mg, 300 mg QD of Form B, Day 1, 6.0 h, Mean, read-out: Compound I Concentration): 31.6 ng/mL
concentration at 6 h (300 mg, 300 mg QD of Form B, Day 1, 6.0 h, Median, read-out: Compound I Concentration): 43.1 ng/mL
concentration at 8 h (300 mg, 300 mg QD of Form B, Day 1, 8.0 h, Mean, read-out: Compound I Concentration): 22.7 ng/mL
concentration at 8 h (300 mg, 300 mg QD of Form B, Day 1, 8.0 h, Median, read-out: Compound I Concentration): 28.1 ng/mL
concentration at 10 h (300 mg, 300 mg QD of Form B, Day 1, 10.0 h, Mean, read-out: Compound I Concentration): 19.9 ng/mL
concentration at 10 h (300 mg, 300 mg QD of Form B, Day 1, 10.0 h, Median, read-out: Compound I Concentration): 18.1 ng/mL
concentration at 12 h (300 mg, 300 mg QD of Form B, Day 1, 12.0 h, Mean, read-out: Compound I Concentration): 15.5 ng/mL
concentration at 12 h (300 mg, 300 mg QD of Form B, Day 1, 12.0 h, Median, read-out: Compound I Concentration): 13.5 ng/mL
concentration at 24 h (300 mg, 300 mg QD of Form B, Day 1, […], Mean, read-out: Compound I Concentration): 8.09 ng/mL
concentration at 24 h (300 mg, 300 mg QD of Form B, Day 1, […], Median, read-out: Compound I Concentration): 8.48 ng/mL
concentration at 0 h (300 mg, 300 mg QD of Form B, Day 29, 0.0 h, Mean, read-out: Compound I Concentration): 13.9 ng/mL
concentration at 0 h (300 mg, 300 mg QD of Form B, Day 29, 0.0 h, Median, read-out: Compound I Concentration): 8.24 ng/mL
concentration at 1 h (300 mg, 300 mg QD of Form B, Day 29, 1.0 h, Mean, read-out: Compound I Concentration): 16.2 ng/mL
